Experimental findings from patent publication US20240376056A1, “PHENYL ACETAMIDE BASED IL-17A MODULATORS AND USES THEREOF” (DiCE Alpha, Inc., priority 2021, published 2024) are described below.

In this experiment the target is T1, IL-17A/A (Homo sapiens, UniProt Q16552).
T1 construct: purchased Genscript Z03228
T1 sequence (Q16552 24-155): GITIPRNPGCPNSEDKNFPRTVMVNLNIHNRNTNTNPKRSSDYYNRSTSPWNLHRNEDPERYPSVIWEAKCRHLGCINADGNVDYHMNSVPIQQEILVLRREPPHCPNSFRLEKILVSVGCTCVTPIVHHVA
Put plainly: HEK-Blue IL-17A/A inhibition assay (SEAP reporter). The experiment is classed as cell-based. Particulars: HEK-Blue cells (HEK 293 expressing IL-17RA, IL-17RC, Act1); IL-17A/A stimulation; 20 hours; SEAP read at A630; 4-parameter fit. The procedure, abridged: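 HEK 293 cells engineered with IL-17RA, IL-17RC and Act1 (NFκB-driven SEAP) given titrated compound (top final 10, 1 or 0.3 uM; 0.1% DMSO) just before IL-17A/A, then incubated 20 h. SEAP in media developed with Quanti-Blue, read at A630; IC50 by 4-parameter nonlinear fit.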

Regarding `CC(C(=O)N(C)CC(F)(F)F)c1cc(F)c(NC(=O)[C@@H](NC(=O)c2ccnn2C(C)C)C(C2CC2)C2CC2)cc1OC(F)(F)F` (some centres unmarked) [Compound 257], the IC50 was under 0.1 µM.
As to `CC(C(=O)NCC(F)(F)F)c1cc(F)c(NC(=O)[C@@H](NC(=O)c2ccnn2C)C(C2CC2)C2CC2)cc1OC(F)(F)F` (some centres unmarked) [Compound 258], the 50% inhibitory concentration (IC50) is under 0.1 µM.
The same measure for `CCn1nccc1C(=O)N[C@H](C(=O)Nc1cc(OC(F)(F)F)c(C(C)C(=O)NCC(F)(F)F)cc1F)C(C1CC1)C1CC1` (some centres unmarked) [Compound 259]: under 0.1 µM; for `CC(C(=O)NCC(F)(F)F)c1cc(F)c(NC(=O)[C@@H](NC(=O)c2ccnn2C(C)C)C(C2CC2)C2CC2)cc1CS(C)(=N)=O` (some centres unmarked) [Compound 260]: 0.1 to 1 µM.
The same measure for “N-((S)-1,1-dicyclopropyl-3-((2-fluoro-4-((S)-1-oxo-1-(3-(trifluoromethyl)azetidin-1-yl)propan-2-yl)phenyl)amino)-3-oxopropan-2-yl)-1-ethyl-1H-pyrazole-5-carboxamide [Compound 14]”: 0.1 to 1 µM.
